Here are results for five compounds from BindingDB's records for doi:10.1021/jm00114a015 (National Institute of Diabetes and Digestive and Kidney …, 1991).

The nature of test [1]: Compound was tested for the inhibitory activity against Sigma opioid receptor by using [3H](+)-3-PPP as radioligand in guinea pig brain.
Experiment in test [2]: as above
The source holds these as a separate data set.

Each structure is given as a SMILES string.

As usually defined, the Ki is the equilibrium dissociation constant of an inhibitor or competing ligand from its target. For the compound `CCCN(CCc1ccc(Cl)c(Cl)c1)[C@H]1CCCC[C@H]1N1CCCC1`, the Ki in test [1] was 140 nM.

`CCN(CCc1ccc(Cl)c(Cl)c1)[C@@H]1CCCC[C@@H]1N1CCCC1` registered a Ki in test [2] of 3.5 nM.

Compound `CCN(CCc1ccc(Cl)c(Cl)c1)[C@H]1CCCC[C@H]1N1CCCC1` registered a Ki in test [1] of 3.1 nM.

Turning to `CN(Cc1ccc(Cl)c(Cl)c1)[C@H]1CCCC[C@H]1N1CCCC1`, in test [2], the affinity, expressed as Ki, was 1.2 nM.

Compound `CCCN(CCc1ccc(Cl)c(Cl)c1)[C@@H]1CCCC[C@@H]1N1CCCC1` had a Ki in test [1] of 56 nM.
